The NIST ThermoML archive (doi:10.1016/j.jct.2014.07.001)

Experiment: xn = mol fraction of the nth substance listed
Conditions: Drop volume

CCCC[n+]1cccc(C)c1.F[B-](F)(F)F [1-butyl-3-methylpyridinium tetrafluoroborate] + CO
surface tension liquid-gas [mN/m]
Conditions | 293.15 K | 303.15 K | 313.15 K | 323.15 K
x1 = 0.0489 | 23.93 | 23.18 | 22.36 | 21.55
x1 = 0.1011 | 25.33 | 24.62 | 23.88 | 23.15
x1 = 0.1984 | 27.89 | 27.26 | 26.63 | 26.04
x1 = 0.2961 | 30.43 | 29.87 | 29.36 | 28.9
x1 = 0.4021 | 33.15 | 32.66 | 32.26 | 31.9
x1 = 0.4935 | 35.36 | 34.89 | 34.55 | 34.25
x1 = 0.5892 | 37.57 | 37.12 | 36.81 | 36.56
x1 = 0.688 | 39.67 | 39.2 | 38.86 | 38.62
x1 = 0.7395 | 40.72 | 40.22 | 39.87 | 39.6
x1 = 0.8001 | 41.87 | 41.35 | 40.95 | 40.65
x1 = 0.8803 | 43.3 | 42.72 | 42.23 | 41.86
x1 = 0.935 | 44.21 | 43.56 | 42.99 | 42.53
x1 = 1 | 45.21 | 44.48 | 43.8 | 43.24

CCCC[n+]1ccc(C)cc1.F[B-](F)(F)F [1-butyl-4-methylpyridinium tetrafluoroborate] + CCO
surface tension liquid-gas [mN/m]
Conditions | 293.15 K | 303.15 K | 313.15 K | 323.15 K
x1 = 0.0497 | 22.7 | 22.02 | 21.32 | 20.63
x1 = 0.0993 | 23.17 | 22.6 | 22.02 | 21.44
x1 = 0.1995 | 24.47 | 24.08 | 23.68 | 23.27
x1 = 0.2946 | 25.95 | 25.68 | 25.41 | 25.14
x1 = 0.36 | 27.2 | 26.98 | 26.77 | 26.55
x1 = 0.4269 | 28.57 | 28.38 | 28.22 | 28.04
x1 = 0.4882 | 29.99 | 29.81 | 29.65 | 29.49
x1 = 0.589 | 32.66 | 32.44 | 32.25 | 32.05
x1 = 0.7001 | 35.92 | 35.61 | 35.34 | 35.05
x1 = 0.7895 | 38.75 | 38.33 | 37.95 | 37.57
x1 = 0.8345 | 40.28 | 39.79 | 39.35 | 38.89
x1 = 0.8805 | 41.85 | 41.29 | 40.77 | 40.25
x1 = 1 | 45.82 | 45.09 | 44.41 | 43.71
